Measurements reported in DBAASP.
In brackets after ≈: the same amount, converted by molar mass.

Tests used:
Test in all cases: ≥ marks a high value that may be exact or a test limit, other limits are often not marked, values filed in µg/mL are converted to µM
Escherichia coli = system: Escherichia coli
Pseudomonas aeruginosa = system: Pseudomonas aeruginosa
Klebsiella pneumoniae = system: Klebsiella pneumoniae
Staphylococcus aureus = system: Staphylococcus aureus
Salmonella typhimurium = system: Salmonella typhimurium
Micrococcus luteus = system: Micrococcus luteus
[1] = system: Staphylococcus epidermidis
Shigella dysenteriae = system: Shigella dysenteriae
Proteus mirabilis = system: Proteus mirabilis
Bacillus subtilis = system: Bacillus subtilis
[2] = system: Escherichia coli ATCC 25922
[3] = system: Candida albicans ATCC 2002
[4] = system: Staphylococcus aureus ATCC 2592
Bacillus cereus = system: Bacillus cereus
Listeria innocua = system: Listeria innocua
Pasteurella multocida = system: Pasteurella multocida
Leuconostoc lactis = system: Leuconostoc lactis
Enterococcus faecalis = system: Enterococcus faecalis
Streptococcus uberis = system: Streptococcus uberis
[5] = system: Enterococcus faecalis ATCC 29212
[6] = system: Candida parapsilosis ATCC 22019
[7] = system: Staphylococcus epidermidis ATCC 12228
Candida albicans = system: Candida albicans
[8] = system: Staphylococcus aureus ATCC 25923
Escherichia coli MG1655 = system: Escherichia coli MG1655
[9] = system: Pseudomonas aeruginosa PAO1
[10] = system: Pseudomonas aeruginosa Ps4

Row | MIC (Escherichia coli) [µM] | MIC (Staphylococcus aureus) [µM] | MIC (Micrococcus luteus) [µM] | MIC [1] [µM] | MIC (Bacillus cereus) [µM] | MIC (Listeria innocua) [µM] | MIC (Pasteurella multocida) [µM] | MIC (Leuconostoc lactis) [µM] | MIC (Streptococcus uberis) [µM] | Structure (SMILES) | other results
1 | 4.9 (≈ 12.5 µg/mL) | 1.21 (≈ 3.1 µg/mL) | 2.47 (≈ 6.3 µg/mL) | 4.9 (≈ 12.5 µg/mL) | – | – | – | – | – | CC[C@H](C)[C@@H]1NC(=O)[C@H](C)NC(=O)[C@@H](NC(=O)[C@H](CCCCN)NC(=O)[C@@H](NC(=O)[C@H](CO)NC(=O)[C@@H]2CCCN2C(=O)[C@H](CC(C)C)NC(=O)[C@@H](NC(=O)[C@H](CCCCN)NC(=O)[C@H](CO)NC(=O)[C@H](C)NC(=O)[C@@H](NC(=O)[C@H](CCCCN)NC(=O)[C@H](Cc2ccccc2)NC(=O)[C@H](CC(C)C)NC(=O)[C@H](C)NC(=O)CNC(=O)[C@H](CC(C)C)NC(=O)[C@@H](N)Cc2ccccc2)C(C)C)C(C)C)C(C)C)CSSC[C@@H](C(=O)O)NC(=O)[C@H](CCCCN)NC(=O)[C@H](CCCCN)NC(=O)[C@H]([C@@H](C)O)NC1=O [FLGALFKVASKVLPSVKCAITKKC] | MIC (Pseudomonas aeruginosa): 78.4 µM (≈ 200 µg/mL); MIC (Klebsiella pneumoniae): 9.8 µM (≈ 25 µg/mL); MIC (Salmonella typhimurium): ≥ 39.2 µM; MIC (Shigella dysenteriae): 19.6 µM (≈ 50 µg/mL); MIC (Proteus mirabilis): ≥ 78.4 µM; MIC (Bacillus subtilis): 2.47 µM (≈ 6.3 µg/mL)
2 | – | – | – | – | – | – | – | – | – | CC[C@H](C)[C@H](NC(=O)[C@@H](NC(=O)[C@@H]1CCCN1C(=O)[C@H](CC(C)C)NC(=O)[C@@H](N)Cc1ccccc1)[C@@H](C)CC)C(=O)N[C@@H](C)C(=O)N[C@@H](CCCCN)C(=O)N[C@@H](CC(C)C)C(=O)N[C@@H](CC(C)C)C(=O)NCC(=O)NCC(=O)N[C@@H](CC(C)C)C(=O)N[C@@H](CC(C)C)C(N)=O [FLPIIAKLLGGLL] | MIC [2]: 21.9 µM (≈ 30 µg/mL); MIC [3]: 18.3 µM (≈ 25 µg/mL); MIC [4]: 3.66 µM (≈ 5 µg/mL)
3 | > 53.2 | 53.2 (≈ 99.9 µg/mL) | ≥ 53.2 | 26.6 (≈ 50 µg/mL) | ≥ 53.2 | ≥ 53.2 | ≥ 53.2 | ≥ 53.2 | 13.3 (≈ 25 µg/mL) | CC[C@H](C)[C@H](NC(=O)[C@@H](NC(=O)CNC(=O)[C@H](C)NC(=O)[C@@H](NC(=O)[C@H](CCCCN)NC(=O)[C@H](CCCCN)NC(=O)[C@H](CC(C)C)NC(=O)[C@H](Cc1ccccc1)NC(=O)[C@H](CC(=O)O)NC(=O)[C@@H](NC(=O)[C@H](Cc1ccccc1)NC(=O)CN)C(C)C)C(C)C)[C@@H](C)O)C(=O)N[C@@H](C)C(=O)N[C@@H](CC(N)=O)C(=O)N[C@H](C(=O)N[C@H](C(=O)N[C@H](C(N)=O)[C@@H](C)O)C(C)C)C(C)C [GFVDFLKKVAGTIANVVT] | MIC (Enterococcus faecalis): ≥ 53.2 µM
4 | – | – | – | – | – | – | – | ≥ 50 | – | CC[C@H](C)[C@H](NC(=O)CNC(=O)[C@@H](NC(=O)[C@@H](NC(=O)[C@H](Cc1cnc[nH]1)NC(=O)[C@H](CCCCN)NC(=O)[C@H](C)NC(=O)[C@H](Cc1ccccc1)NC(=O)[C@H](CC(=O)O)NC(=O)[C@H](CC(C)C)NC(=O)[C@H](CC(C)C)NC(=O)CN)C(C)C)[C@@H](C)CC)C(=O)N[C@@H](C)C(=O)N[C@@H](CO)C(=O)N[C@@H](CCCCN)C(=O)N[C@@H](CC(C)C)C(N)=O [GLLDFAKHVIGIASKL] | MIC [5]: 100 µM (≈ 168 µg/mL)
5 | > 36.7 | > 36.7 | ≥ 36.7 | ≥ 36.7 | ≥ 36.7 | ≥ 36.7 | ≥ 36.7 | ≥ 36.7 | 9.17 (≈ 25 µg/mL) | CC[C@H](C)[C@H](NC(=O)CNC(=O)[C@H](CO)NC(=O)[C@@H](NC(=O)[C@@H](NC(=O)CNC(=O)[C@H](CCCCN)NC(=O)[C@H](C)NC(=O)[C@H](CC(C)C)NC(=O)[C@H](CO)NC(=O)[C@H](CCC(=O)O)NC(=O)[C@H](CC(C)C)NC(=O)[C@H](CO)NC(=O)[C@H](CCC(=O)O)NC(=O)[C@H](CC(C)C)NC(=O)[C@H](CCCCN)NC(=O)[C@H](CCC(=O)O)NC(=O)[C@H](CCCCN)NC(=O)[C@@H](NC(=O)[C@@H](NC(=O)[C@H](CCC(N)=O)NC(=O)[C@H](CC(C)C)NC(=O)[C@H](CC(C)C)NC(=O)CN)[C@@H](C)O)[C@@H](C)CC)[C@@H](C)CC)C(C)C)C(=O)N[C@@H](CCC(N)=O)C(=O)N[C@@H](C)C(N)=O [GLLQTIKEKLESLESLAKGIVSGIQA] | MIC (Enterococcus faecalis): ≥ 36.7 µM
6 | 19.2 (≈ 50 µg/mL) | 38.4 (≈ 100 µg/mL) | 0.154 (≈ 0.4 µg/mL) | 9.6 (≈ 25 µg/mL) | 19.2 (≈ 50 µg/mL) | ≥ 38.4 | 9.6 (≈ 25 µg/mL) | 4.61 (≈ 12 µg/mL) | ≥ 38.4 | CC[C@H](C)[C@H](NC(=O)[C@@H](NC(=O)[C@@H]1CCCN1C(=O)[C@@H](NC(=O)[C@@H](NC(=O)[C@H](Cc1cnc[nH]1)NC(=O)[C@@H]1CCCN1C(=O)[C@H](CC(C)C)NC(=O)[C@@H](NC(=O)[C@H](Cc1cnc[nH]1)NC(=O)[C@H](CCCCN)NC(=O)[C@H](C)NC(=O)[C@@H](NC(=O)[C@H](CO)NC(=O)[C@H](CO)NC(=O)[C@H](CC(C)C)NC(=O)[C@H](CO)NC(=O)[C@H](CO)NC(=O)[C@H](CC(C)C)NC(=O)[C@H](CC(C)C)NC(=O)CN)C(C)C)C(C)C)C(C)C)C(C)C)C(C)C)C(=O)N[C@@H](C)C(=O)N[C@@H](CCC(=O)O)C(=O)N[C@@H](Cc1cnc[nH]1)C(=O)N[C@@H](CC(C)C)C(N)=O [GLLSSLSSVAKHVLPHVVPVIAEHL] | –
7 | – | – | – | – | – | – | – | – | – | CC[C@H](C)[C@H](N)C(=O)N[C@H](C(=O)N1CCC[C@H]1C(=O)N[C@@H](Cc1ccccc1)C(=O)N[C@@H](CC(C)C)C(=O)N[C@@H](CC(C)C)C(=O)NCC(=O)N[C@@H](CCSC)C(=O)N[C@H](C(=O)N1CCC[C@H]1C(=O)N[C@@H](CCCCN)C(=O)N[C@@H](CC(C)C)C(=O)N[C@H](C(=O)N[C@H]1CSSC[C@@H](C(=O)O)NC(=O)[C@H](CCCCN)NC(=O)[C@H](CCCCN)NC(=O)[C@H]([C@@H](C)O)NC(=O)[C@H]([C@@H](C)CC)NC(=O)[C@H](CC(C)C)NC1=O)C(C)C)C(C)C)C(C)C [IVPFLLGMVPKLVCLITKKC] | MIC [2]: 64 µM (≈ 142 µg/mL); MIC [6]: 16 µM (≈ 35.4 µg/mL); MIC [7]: 4 µM (≈ 8.86 µg/mL)
8 | > 54.8 | > 54.8 | ≥ 54.8 | ≥ 54.8 | ≥ 54.8 | 27.4 (≈ 50 µg/mL) | ≥ 54.8 | 6.57 (≈ 12 µg/mL) | ≥ 54.8 | CC[C@H](C)[C@H](NC(=O)[C@@H](NC(=O)[C@H](C)NC(=O)[C@H](C)NC(=O)[C@@H](NC(=O)[C@H](CCCCN)NC(=O)[C@H](CCCCN)NC(=O)[C@@H](NC(=O)[C@@H](NC(=O)[C@H](C)NC(=O)[C@H](Cc1ccccc1)NC(=O)[C@H](CC(C)C)NC(=O)[C@@H](N)CCCCN)C(C)C)[C@@H](C)CC)C(C)C)C(C)C)C(=O)N[C@@H](CCCN=C(N)N)C(=O)N[C@@H](CCCN=C(N)N)C(=O)N[C@@H](CC(C)C)C(N)=O [KLFAVIKKVAAVIRRL] | –
9 | – | – | – | – | – | – | – | – | – | CSCC[C@H](NC(=O)[C@@H](NC(=O)[C@@H](N)CCCCN)C(C)C)C(=O)N[C@@H](CCCN=C(N)N)C(=O)N[C@@H](CCCCN)C(=O)N[C@H](C(=O)N[C@@H](CC(C)C)C(=O)NCC(=O)N[C@@H](Cc1ccc(O)cc1)C(=O)N[C@@H](CC(C)C)C(=O)N[C@@H](CCCN=C(N)N)C(=O)N[C@@H](CC(N)=O)C(=O)N[C@H](C(=O)N[C@@H](Cc1ccc(O)cc1)C(=O)N[C@@H](CCCCN)C(N)=O)C(C)C)C(C)C [KVMRKVLGYLRNVYK] | MIC (Candida albicans): 32 µM (≈ 59.7 µg/mL); MIC [8]: 128 µM (≈ 239 µg/mL); MIC (Escherichia coli MG1655): 2 µM (≈ 3.73 µg/mL); MIC [9]: 32 µM (≈ 59.7 µg/mL)
10 | – | – | – | – | – | – | – | – | – | CC[C@H](C)[C@H](NC(=O)[C@H](CC(N)=O)NC(=O)[C@H](CCCN=C(N)N)NC(=O)[C@H](CCC(N)=O)NC(=O)[C@H](Cc1c[nH]c2ccccc12)NC(=O)[C@H](Cc1ccccc1)NC(=O)[C@@H](N)CCCN=C(N)N)C(=O)N[C@@H](CCCN=C(N)N)C(=O)N[C@@H](CCCCN)C(=O)N[C@H](C(=O)N[C@@H](CCCN=C(N)N)C(=O)N[C@@H](CCCN=C(N)N)C(N)=O)C(C)C [RFWQRNIRKVRR] | MIC [10]: ≥ 146 µM
11 | – | – | – | – | – | – | – | – | – | CC[C@H](C)[C@H](NC(=O)[C@H](CC(N)=O)NC(=O)[C@H](CCCN=C(N)N)NC(=O)[C@H](CCC(N)=O)NC(=O)[C@H](Cc1c[nH]c2ccccc12)NC(=O)[C@H](CCCN=C(N)N)NC(=O)[C@@H](N)CCCN=C(N)N)C(=O)N[C@@H](CCCN=C(N)N)C(=O)N[C@@H](CCCCN)C(=O)N[C@@H](Cc1ccc(O)cc1)C(=O)N[C@@H](CCCN=C(N)N)C(=O)N[C@@H](CCCN=C(N)N)C(N)=O [RRWQRNIRKYRR] | MIC [10]: ≥ 140 µM
